Patent US8318973B2, “Functionalized sinapic acid and methyl sinapate” (Bezwada Biomedical, LLC, priority 2005, dated 2012)

assay: In vitro hydrolysis of functionalized phenolics in pH 7.4 buffer at reflux; assay type: physicochemical; details: 500 mg compound in 50 mL pH 7.4 buffer, reflux temperature (100° C.), monitored by TLC
Procedure: In Vitro Hydrolysis of Functionalized Phenolics
A few selected compounds were examined for the rate of hydrolysis by conducting in vitro hydrolysis studies at reflux temperature (100° C.). For each experiment, 500 mg of a functionalized compound and 50 mL of pH 7.4 buffer solution (purchased from Aldrich chemical company) were charged into a 100 mL round bottom flask fitted with a condenser and the contents were refluxed. In vitro hydrolysis of the functionalized phenolic was monitored by thin layer chromatography (TLC) using corresponding starting material (original amino acid) as a control. In vitro hydrolysis was continued at reflux until the functionalized molecule hydrolyzed to the starting compound.

Row | Compound | time in which the functionalized compound was hydrolyzed to the starting compound
1 | COC(=O)COC(=O)COc1ccc(C(=O)OCC(=O)OC)cc1 [Example 77, 4-Methoxycarbonylmethoxycarbonylmethoxy-benzoic acid methoxycarbonyl methyl ester] | 26.5 h
2 | COC(=O)COC(=O)c1ccc(OCC(=O)OC)cc1 [Example 78, 4-Methoxycarbonylmethoxy-benzoic acid methoxycarbonylmethyl ester] | 33.0 h
3 | COC(=O)COC(=O)c1ccccc1OCC(=O)OC [Example 79, 2-Methoxycarbonylmethoxy-benzoic acid methoxycarbonylmethyl ester] | eight
4 | COC(=O)COC(=O)COc1ccccc1C(=O)OCC(=O)OC [Example 81, 2-Methoxycarbonylmethoxycarbonylmethoxy-benzoic acid methoxycarbonyl methyl ester] | two
5 | COC(=O)COC(=O)COc1ccc(OCC(=O)OCC(=O)OC)cc1 [Example 84, (4-Methoxycarbonylmethoxycarbonylmethoxy-phenoxy)-acetic acid methoxycarbonyl methyl ester] | one
6 | COC(=O)C(C)OC(=O)COc1ccc(OCC(=O)OC(C)C(=O)OC)cc1 (stereo not shown) [Example 85, 2-{2-[4-(1-Methoxycarbonyl-ethoxycarbonylmethoxy)-phenoxy]-acetoxy}-propionic acid methyl ester] | two
7 | COC(=O)COC(=O)COc1ccc2cc(C(C)C(=O)OCC(=O)OC)ccc2c1 (stereo not shown) [Example 90, 2-(6-Methoxycarbonylmethoxycarbonylmethoxy-naphthalen-2-yl)-propionic acid Methoxy Carbonylmethyl ester] | four
8 | COC(=O)COC(=O)C(C)c1ccc2cc(OCC(=O)OC)ccc2c1 (stereo not shown) [Example 92, 2-(6-Methoxycarbonylmethoxy-naphthalen-2-yl)-propionic acid Methoxy Carbonyl methyl ester] | four
9 | COC(=O)COC(=O)COc1ccc(N)cc1 [Example 96, (4-Amino-phenoxy)-acetic acid methoxycarbonylmethyl ester] | three
10 | COC(=O)COC(=O)COc1ccc(-c2coc3cc(OCC(=O)OCC(=O)OC)ccc3c2=O)cc1 [Example 98, [4-(7-Methoxycarbonylmethoxycarbonylmethoxy-4-oxo-4H-chromen-3-yl)-phenoxy]-acetic acid methoxycarbonylmethyl ester] | ten
